Source: paper PMC9939733 (The Journal of Biological Chemistry, 2023)
Numbering of substitutions follows the chain as printed. “And” between values parts separate entries of the source, which are not always exact repeats. Identical values can stand only once. Counter-ions that a name gives are not always drawn.

Legend:
Format in all cases: biochemical
WT IDH2 [1] = biological target: T1, WT IDH2 (Homo sapiens, UniProt P48735); assay: Absorbance assay, substrate activity in the absence of DL-isocitrate
T1 construct: made in house; host or cells: Sf21 insect cells (cell pellets prepared at Evotec)
T1 sequence (P48735 40-452): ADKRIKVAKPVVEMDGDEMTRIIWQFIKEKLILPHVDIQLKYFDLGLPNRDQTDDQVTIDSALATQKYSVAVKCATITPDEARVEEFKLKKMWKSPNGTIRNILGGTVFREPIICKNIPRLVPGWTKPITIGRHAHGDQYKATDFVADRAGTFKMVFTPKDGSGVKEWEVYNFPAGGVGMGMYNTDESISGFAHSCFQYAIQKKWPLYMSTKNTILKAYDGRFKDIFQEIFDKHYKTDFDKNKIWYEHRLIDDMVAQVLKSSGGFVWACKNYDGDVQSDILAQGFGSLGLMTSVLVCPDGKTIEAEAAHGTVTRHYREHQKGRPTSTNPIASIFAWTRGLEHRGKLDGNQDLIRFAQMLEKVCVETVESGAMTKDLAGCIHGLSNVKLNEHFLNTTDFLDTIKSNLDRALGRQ
Outline: (§1)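 Tech. quadruplicates; cpds pipetted simultaneously, reaction initiated by dispenser addition.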

WT IDH1 [2] = biological target: T2, WT IDH1 (Homo sapiens, UniProt O75874); assay: as above
T2 construct: made in house; host or cells: Escherichia coli BL21(DE3) pLyS
T2 sequence (O75874 whole entry): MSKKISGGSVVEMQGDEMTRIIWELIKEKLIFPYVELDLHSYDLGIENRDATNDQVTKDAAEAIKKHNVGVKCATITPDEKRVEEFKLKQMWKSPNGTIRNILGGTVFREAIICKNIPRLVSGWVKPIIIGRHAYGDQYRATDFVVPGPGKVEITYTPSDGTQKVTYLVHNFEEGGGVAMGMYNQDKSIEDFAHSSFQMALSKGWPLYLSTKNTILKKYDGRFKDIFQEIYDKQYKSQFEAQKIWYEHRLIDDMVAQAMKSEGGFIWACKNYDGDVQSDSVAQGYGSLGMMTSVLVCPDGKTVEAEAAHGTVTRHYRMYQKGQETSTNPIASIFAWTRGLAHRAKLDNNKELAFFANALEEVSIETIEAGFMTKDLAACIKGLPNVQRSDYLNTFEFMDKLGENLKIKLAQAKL
Outline: as §1

R140Q IDH2 [3] = biological target: T3, R140Q IDH2 (Homo sapiens, UniProt P48735, R140Q); assay: Absorbance assay, variant activity in the presence of equimolar 2OG (inhibition screen)
T3 construct: made in house; host or cells: Sf21 insect cells (cell pellets prepared at Evotec)
T3 sequence (P48735 40-452 R140Q): T1 sequence (P48735 40-452) with R101Q
Outline: as §1

R172K IDH2 [4] = biological target: T4, R172K IDH2 (Homo sapiens, UniProt P48735, R172K); assay: as above
T4 construct: made in house; host or cells: Sf21 insect cells (cell pellets prepared at Evotec)
T4 sequence (P48735 40-452 R172K): T1 sequence (P48735 40-452) with R133K
Outline: as §1

WT IDH2 [5] = biological target: T1, WT IDH2; assay: Absorbance assay, WT activity in the presence of equimolar DL-isocitrate (inhibition)
Outline: as §1

WT IDH1 [6] = biological target: T2, WT IDH1; assay: as above
Outline: as §1

R132H IDH1 [7] = biological target: T5, R132H IDH1 (Homo sapiens, UniProt O75874, R132H); assay: Absorbance assay (NADPH consumption), substrate turnover in the absence of 2OG; set-up: made in house; host or cells: Escherichia coli BL21(DE3) pLyS
T5 sequence (O75874 whole entry R132H): as the sequence (O75874 whole entry) above, with R132H counted along it
Experimental: (§2) Compounds were dispensed using a CyBio SDW-CW CyBi-Well Simultaneous Pipettor and assay started using a ThermoFisher Multidrop Combi reagent dispenser.
(§3) Reactions were performed as technical quadruplicates.

R140Q IDH2 [8] = biological target: T3, R140Q IDH2; assay: as above
Experimental: as §2, §3

R172K IDH2 [9] = biological target: T4, R172K IDH2; assay: as above
Experimental: as §2, §3

R132H IDH1 [10] = biological target: T5, R132H IDH1; assay: Absorbance assay, variant activity in the presence of equimolar 2OG (inhibition screen); set-up: made in house; host or cells: Escherichia coli BL21(DE3) pLyS
Outline: as §1

[11] = no DL-isocitrate, […] test compound, 75 μM NADP+, 2.0 nM WT IDH2, compared to DL-isocitrate
[12] = no DL-isocitrate, […] test compound, 75 μM NADP+, 2.0 nM WT IDH1, compared to DL-isocitrate
[13] = 6.0 mM 2OG and 6.0 mM test compound, 0.03 μM R140Q IDH2, 50 μM NADPH
[14] = 1.0 mM 2OG and 1.0 mM test compound, 0.03 μM R172K IDH2, 50 μM NADPH
[15] = […] isocitrate and […] test compound, 75 μM NADP+, 2.0 nM WT IDH2
[16] = […] isocitrate and […] test compound, 75 μM NADP+, 2.0 nM WT IDH1
[17] = no 2OG, […] test compound, 0.03 μM R132H IDH1, 50 μM NADPH, 2OG = 100
[18] = no 2OG, 6.0 mM test compound, 0.03 μM R140Q IDH2, 50 μM NADPH, 2OG = 100
[19] = no 2OG, 1.0 mM test compound, 0.03 μM R172K IDH2, 50 μM NADPH, 2OG = 100
[20] = […] 2OG and […] test compound, 0.03 μM R132H IDH1, 50 μM NADPH

Compound	activity [%] (%-substrate conversion after 20 min incubation) (WT IDH2 [1]; [11])	activity [%] (%-substrate conversion after 20 min incubation) (WT IDH1 [2]; [12])	activity [%] (%-substrate conversion after 20 min incubation) (R140Q IDH2 [3]; [13])	activity [%] (%-substrate conversion after 20 min incubation) (R172K IDH2 [4]; [14])	activity [%] (%-substrate conversion after 20 min incubation) (WT IDH2 [5]; [15])	activity [%] (%-substrate conversion after 20 min incubation) (WT IDH1 [6]; [16])	activity [%] (%-substrate conversion after 20 min incubation) (R132H IDH1 [7]; [17])	activity [%] (%-substrate conversion after 20 min incubation) (R140Q IDH2 [8]; [18])	activity [%] (%-substrate conversion after 20 min incubation) (R172K IDH2 [9]; [19])	activity [%] (%-substrate conversion after 20 min incubation) (R132H IDH1 [10]; [20])	activity [%] (%-substrate conversion after 20 min incubation) (WT IDH2 [1])	activity [%] (%-substrate conversion after 20 min incubation) (WT IDH1 [2])	activity [%] (%-substrate conversion after 20 min incubation) (R140Q IDH2 [3])	activity [%] (%-substrate conversion after 20 min incubation) (R172K IDH2 [4])	activity [%] (%-substrate conversion after 20 min incubation) (WT IDH2 [5])	activity [%] (%-substrate conversion after 20 min incubation) (WT IDH1 [6])	activity [%] (%-substrate conversion after 20 min incubation) (R132H IDH1 [7])	activity [%] (%-substrate conversion after 20 min incubation) (R140Q IDH2 [8])	activity [%] (%-substrate conversion after 20 min incubation) (R172K IDH2 [9])	activity [%] (%-substrate conversion after 20 min incubation) (R132H IDH1 [10])
succinyl CoA	< 10%	< 10%	117 ± 2%	91 ± 6%	99 ± 1%	100 ± 1%	< 10%	< 10%	< 10%	73 ± 1%										
C=C(CC(=O)O)C(=O)O [itaconic acid]	< 10%	< 10%	96 ± 3%	95 ± 7%	99 ± 2%	99 ± 1%	< 10%	< 10%	< 10%	92 ± 2%										
O=C1CC(C(=O)O)C(C(=O)O)O1 (racemic) [DL-isocitric acid lactone]											~10% and 11 ± 1%	~10% and 12 ± 4%	118 ± 18%	95 ± 3%	106 ± 2%	105 ± 2%	< 10%	< 10%	< 10%	99 ± 2%
O=C(O)CC(Cc1ccccc1)C(=O)O (racemic) [DL-benzylsuccinic acid]	< 10%	< 10%	123 ± 5%	98 ± 3%	101 ± 3%	103 ± 4%	< 10%	< 10%	< 10%	93 ± 3%										
C[C@@](O)(CC(=O)O)C(=O)O [(R)-citramalic acid]	< 10%	< 10%	110 ± 9%	100 ± 5%	99 ± 2%	101 ± 1%	< 10%	< 10%	< 10%	95 ± 2%										

Continued, in another order:

activity [%] (%-substrate conversion after 20 min incubation) (WT IDH2 [1]; [11])	activity [%] (%-substrate conversion after 20 min incubation) (WT IDH1 [2]; [12])	activity [%] (%-substrate conversion after 20 min incubation) (R140Q IDH2 [3]; [13])	activity [%] (%-substrate conversion after 20 min incubation) (R172K IDH2 [4]; [14])	activity [%] (%-substrate conversion after 20 min incubation) (WT IDH2 [5]; [15])	activity [%] (%-substrate conversion after 20 min incubation) (WT IDH1 [6]; [16])	activity [%] (%-substrate conversion after 20 min incubation) (R132H IDH1 [7]; [17])	activity [%] (%-substrate conversion after 20 min incubation) (R140Q IDH2 [8]; [18])	activity [%] (%-substrate conversion after 20 min incubation) (R172K IDH2 [9]; [19])	activity [%] (%-substrate conversion after 20 min incubation) (R132H IDH1 [10]; [20])	Compound	activity [%] (%-substrate conversion after 20 min incubation) (WT IDH2 [1])	activity [%] (%-substrate conversion after 20 min incubation) (WT IDH1 [2])	activity [%] (%-substrate conversion after 20 min incubation) (R140Q IDH2 [3])	activity [%] (%-substrate conversion after 20 min incubation) (R172K IDH2 [4])	activity [%] (%-substrate conversion after 20 min incubation) (WT IDH2 [5])	activity [%] (%-substrate conversion after 20 min incubation) (WT IDH1 [6])	activity [%] (%-substrate conversion after 20 min incubation) (R132H IDH1 [7])	activity [%] (%-substrate conversion after 20 min incubation) (R140Q IDH2 [8])	activity [%] (%-substrate conversion after 20 min incubation) (R172K IDH2 [9])	activity [%] (%-substrate conversion after 20 min incubation) (R132H IDH1 [10])
< 10%	< 10%	112 ± 13%	87 ± 6%	97 ± 1%	98 ± 1%	< 10%	< 10%	< 10%	86 ± 3%	O=C(O)/C=C/C(=O)O [fumaric acid]										
< 10%	< 10%	61 ± 11%	91 ± 2%	100 ± 3%	104 ± 4%	< 10%	< 10%	< 10%	85 ± 3%	COC(=O)/C=C/C(=O)OC [dimethyl fumarate]										
< 10%	< 10%	117 ± 11%	98 ± 4%	100 ± 2%	100 ± 1%	< 10%	< 10%	< 10%	103 ± 4%	O=C(O)CC(=O)O [malonic acid]										
< 10%	< 10%	98 ± 4%	92 ± 6%	98 ± 1%	102 ± 2%	< 10%	< 10%	< 10%	90 ± 4%	COC(=O)/C=C/C(=O)O [mono-methyl fumarate]										
< 10%	< 10%	117 ± 3%	102 ± 7%	100 ± 1%	105 ± 2%	< 10%	< 10%	< 10%	99 ± 2%	NC(=O)C(=O)O [oxamic acid]										
